Experimental data from patent publication US20220326219A1, “METHODS AND DEVICE FOR THE ANALYSIS OF TISSUE SAMPLES” (PRECOMB THERAPEUTICS AG, priority 2019, published 2022).

Tests used:
[1] = test system: living, perfused microvessels (vasculature) of in vitro vascularized microtumors; conditions: VMT platform, Sobrino et al. 2016; cited from earlier work
[2] = test system: pancreatic patient-derived xenograft; assay: In vivo efficacy in pancreatic patient-derived xenograft (PDX-mouse model); conditions: average response of 5 individual animals
Experimental: To compare whether the in vitro efficacy analysis is matching in vivo (mouse) efficacy drug response data as obtained, pancreatic patient-derived xenograft (PDX-mouse model) and pancreatic microtumors derived from PDX tumor tissue were generated. Two single drugs (Gemcitabine and Abraxane) and two drug combinations (Gemcitabine:Erlotinib and Gemcitabine:Abraxane) were tested. In vivo data points reflect the average response of 5 individual animals.

[3] = test system: pancreatic pdx microtumors 12558; assay: Drug efficacy on PDX-derived pancreatic microtumors by tumor growth kinetics over 11 days; type: cell-based; conditions: drugs at cmax values in vivo, 11 days monitoring

**Q.** For N#CC1(c2ccc(NC(=O)c3cccnc3NCc3ccncc3)cc2)CCCC1 [Apatinib], which “effect on vasculature of vascularized microtumors” value [1] is on record?
**A.** The value was “not effective”.

**Q.** Which results are given for Nc1ccn([C@@H]2O[C@H](CO)[C@@H](O)C2(F)F)c(=O)n1 [Gemcitabine]?
**A.** in vivo (mouse) efficacy drug response [2]: highest efficacy; drug efficacy on microtumors (t11/t0 and t11treated/t11control) [3]: highest efficacy

**Q.** Which “drug efficacy on microtumors (t11/t0 and t11treated/t11control)” value [3] does the source give for O=C1[O][Pt]2([NH][C@@H]3CCCC[C@H]3[NH]2)[O]C1=O [Oxaliplatin] here?
**A.** Its value is “least effective”.
